Test results published in US6653300B2, “Pyrazole compounds useful as protein kinase inhibitors” (Vertex Pharmaceuticals Incorporated, priority 2000, dated 2003).
Where two headings read alike, the source gives them in different places.

Legend:
activated ERK2 = activated ERK2 (Homo sapiens, UniProt P28482); test: ERK inhibition assay (spectrophotometric coupled-enzyme assay); format: biochemical; settings: 10 nM activated ERK2, 65 μM ATP, 30° C.; read-out: Ki values for ERK-2
Protocol: Compounds were assayed for the inhibition of ERK2 by a spectrophotometric coupled-enzyme assay (Fox et al (1998) Protein Sci 7, 2249).

CDK-2/Cyclin A = CDK-2/Cyclin A (Homo sapiens, UniProt P24941); test: CDK-2 inhibition assay (coupled enzyme assay); format: biochemical; settings: 25 nM CDK-2/Cyclin A, 30° C.
Protocol: Compounds were screened in the following manner for their ability to inhibit CDK-2 using a standard coupled enzyme assay (Fox et al (1998) Protein Sci 7, 2249).
To an assay stock buffer solution containing 0.1M HEPES 7.5, 10 mM MgCl2, 1 mM DTT, 25 mM NaCl, 2.5 mM phosphoenolpyruvate, […], 30 mg/ml pyruvate kinase, 10 mg/ml lactate dehydrogenase, 100 mM ATP, and 100 μM peptide ([…], American Peptide, Sunnyvale, Calif.) was added a DMSO solution of a compound of the present invention to a final concentration of 30 μM. The resulting mixture was incubated at 30° C. for 10 min.
The reaction was initiated by the addition of 10 μL of CDK-2/Cyclin A stock solution to give a final concentration of 25 nM in the assay. The rates of reaction were obtained by monitoring absorbance at 340 nm over a 5-minute read time at 30° C. using a BioRad Ultramark plate reader (Hercules, Calif.). The Ki values were determined from the rate data as a function of inhibitor concentration.

Aurora-2 = molecular target: T1, Aurora-2 (Homo sapiens, UniProt O14965); test: Ki determination for the inhibition of Aurora-2 (coupled enzyme assay); format: biochemical; settings: 70 nM Aurora-2, 30° C.
T1 sequence (O14965 1-403): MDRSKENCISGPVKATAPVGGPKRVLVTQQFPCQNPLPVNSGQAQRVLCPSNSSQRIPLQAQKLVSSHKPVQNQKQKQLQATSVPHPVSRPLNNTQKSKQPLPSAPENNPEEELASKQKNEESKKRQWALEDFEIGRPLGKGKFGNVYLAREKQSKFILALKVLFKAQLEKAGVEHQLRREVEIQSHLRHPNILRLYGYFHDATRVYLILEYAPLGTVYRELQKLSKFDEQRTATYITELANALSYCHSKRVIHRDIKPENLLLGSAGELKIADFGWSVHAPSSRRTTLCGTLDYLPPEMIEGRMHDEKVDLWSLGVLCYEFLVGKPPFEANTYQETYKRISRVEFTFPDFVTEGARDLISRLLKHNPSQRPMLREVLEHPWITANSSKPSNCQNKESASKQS
Outline: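 Ki came from reaction rates plotted against inhibitor concentration, with rates taken as A340 decrease over 5 min at 30° C. Enzyme (70 nM final) was added after 10 min compound preincubation; stock buffer held […], 800 μM LRRASLG, PK/LDH coupling, pH 7.5.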

GSK-3β (AA 1-420) = molecular target: T2, GSK-3β (AA 1-420) (Homo sapiens, UniProt P49841); test: Ki determination for the inhibition of GSK-3 (coupled enzyme system); format: biochemical; settings: 20 μM ATP, 20 nM GSK-3β, 30° C.
T2 construct: GSK-3β (AA 1-420)
T2 sequence (P49841 whole entry, the tested form may be a part): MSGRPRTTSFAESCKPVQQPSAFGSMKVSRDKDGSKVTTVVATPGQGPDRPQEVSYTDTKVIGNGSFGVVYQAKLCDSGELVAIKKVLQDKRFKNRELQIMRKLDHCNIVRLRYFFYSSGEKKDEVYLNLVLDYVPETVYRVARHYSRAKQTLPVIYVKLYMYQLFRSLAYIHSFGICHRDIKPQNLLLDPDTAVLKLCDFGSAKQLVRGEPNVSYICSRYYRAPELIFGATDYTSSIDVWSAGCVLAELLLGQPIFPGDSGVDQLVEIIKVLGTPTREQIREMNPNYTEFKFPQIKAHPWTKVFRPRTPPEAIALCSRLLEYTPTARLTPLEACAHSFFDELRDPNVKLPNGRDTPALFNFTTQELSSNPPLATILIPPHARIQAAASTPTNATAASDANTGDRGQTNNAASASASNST
Outline: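 GSK-3β (AA 1-420, 20 nM) was run in a pyruvate kinase/LDH-coupled NADH assay in 100 mM HEPES pH 7.5, 10 mM MgCl2, 25 mM NaCl, 1 mM DTT, 1.5% DMSO, with 300 μM phosphopeptide substrate. Compound (0.002–30 μM) was preincubated 10 min at 30° C, then 20 μM ATP was added.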

human Src kinase = molecular target: T3, human Src kinase (Homo sapiens, UniProt P12931); test: SRC inhibition assay (radioactivity-based or spectrophotometric assay); format: biochemical; settings: recombinant human Src kinase, assay A or B
T3 construct: full length recombinant human Src kinase (from Upstate Biotechnology, cat. no. 14-117); purchased Upstate Biotechnology 14-117; host or cells: baculo viral cells
T3 sequence (P12931 whole entry): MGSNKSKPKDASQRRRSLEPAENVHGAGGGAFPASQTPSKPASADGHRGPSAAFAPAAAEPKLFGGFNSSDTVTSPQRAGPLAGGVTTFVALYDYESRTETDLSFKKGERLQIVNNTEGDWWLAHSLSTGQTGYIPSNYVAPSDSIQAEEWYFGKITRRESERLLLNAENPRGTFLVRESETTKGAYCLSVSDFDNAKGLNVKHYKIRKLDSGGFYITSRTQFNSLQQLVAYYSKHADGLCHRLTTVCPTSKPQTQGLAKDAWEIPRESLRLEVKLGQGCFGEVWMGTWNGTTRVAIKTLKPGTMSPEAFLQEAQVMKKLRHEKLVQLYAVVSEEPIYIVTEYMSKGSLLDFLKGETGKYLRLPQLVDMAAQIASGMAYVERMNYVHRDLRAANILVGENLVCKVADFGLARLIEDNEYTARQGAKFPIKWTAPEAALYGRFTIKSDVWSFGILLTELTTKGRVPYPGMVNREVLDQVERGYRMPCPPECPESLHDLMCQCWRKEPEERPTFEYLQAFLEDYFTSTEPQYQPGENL
Outline: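 Full-length recombinant human Src from baculovirus was used. In the radiometric format, enzyme was preincubated 10 min at 30 °C, the reaction was started with ^33P-ATP and run 20 min, then TCA-quenched and filter-counted. The alternative format monitored poly Glu-Tyr phosphorylation by NADH-coupled A340 rate. Ki came from competitive-inhibition fits.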

AKT-3 = AKT-3 (Homo sapiens, UniProt Q9Y243); test: AKT inhibition assay (coupled enzyme assay); format: biochemical; settings: 45 nM AKT, 170 μM ATP, 30° C.
Sequence of AKT-3 (Q9Y243 whole entry, species assumed): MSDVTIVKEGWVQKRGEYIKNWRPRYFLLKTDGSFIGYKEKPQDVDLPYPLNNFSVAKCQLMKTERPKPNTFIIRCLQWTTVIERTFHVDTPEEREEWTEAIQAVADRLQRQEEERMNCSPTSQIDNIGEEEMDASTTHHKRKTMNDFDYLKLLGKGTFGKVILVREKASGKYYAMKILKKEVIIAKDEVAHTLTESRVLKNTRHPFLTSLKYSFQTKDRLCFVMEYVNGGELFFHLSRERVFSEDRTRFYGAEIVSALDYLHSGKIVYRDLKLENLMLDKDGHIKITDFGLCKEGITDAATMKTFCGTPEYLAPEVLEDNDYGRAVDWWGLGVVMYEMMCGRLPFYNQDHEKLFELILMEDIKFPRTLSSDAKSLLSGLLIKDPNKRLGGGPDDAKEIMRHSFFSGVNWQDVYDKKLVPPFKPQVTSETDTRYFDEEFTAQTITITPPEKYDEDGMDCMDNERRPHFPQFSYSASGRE
Protocol: Compounds were screened for their ability to inhibit AKT using a standard coupled enzyme assay (Fox et al., Protein Sci., (1998) 7, 2249). Assays were carried out in a mixture of 100 mM HEPES 7.5, 10 mM MgCl2, 25 mM NaCl, 1 mM DTT and 1.5% DMSO. Final substrate concentrations in the assay were 170 μM ATP (Sigma Chemicals) and 200 μM peptide (RPRAATF, American Peptide, Sunnyvale, Calif.). Assays were carried out at 30° C. and 45 nM AKT. Final concentrations of the components of the coupled enzyme system were 2.5 mM phosphoenolpyruvate, 300 μM NADH, 30 μg/ML pyruvate kinase and 10 μg/ml lactate dehydrogenase.
An assay stock buffer solution was prepared containing all of the reagents listed above, with the exception of AKT, DTT, and the test compound of interest. 56 μl of the stock solution was placed in a 384 well plate followed by addition of 1 μl of 2 mM DMSO stock containing the test compound (final compound concentration 30 μM). The plate was preincubated for about 10 minutes at 30° C. and the reaction initiated by addition of 10 μl of enzyme (final concentration 45 nM) and 1 mM DTT. Rates of reaction were obtained using a BioRad Ultramark plate reader (Hercules, Calif.) over a 5 minute read time at 30° C.

Sequence of activated ERK2 (P28482 whole entry): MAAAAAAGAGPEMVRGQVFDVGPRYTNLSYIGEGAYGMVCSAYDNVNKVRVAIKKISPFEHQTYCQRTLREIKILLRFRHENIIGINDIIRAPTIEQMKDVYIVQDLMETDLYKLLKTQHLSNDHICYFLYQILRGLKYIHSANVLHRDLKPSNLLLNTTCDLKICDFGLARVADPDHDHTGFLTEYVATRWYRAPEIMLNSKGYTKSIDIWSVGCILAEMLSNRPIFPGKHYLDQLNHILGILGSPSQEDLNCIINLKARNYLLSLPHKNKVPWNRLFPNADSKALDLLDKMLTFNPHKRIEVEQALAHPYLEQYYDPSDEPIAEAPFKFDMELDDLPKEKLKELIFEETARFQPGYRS

| Ki (activated ERK2) | melting point | Ki (CDK-2/Cyclin A) | Ki (Aurora-2) | Ki (GSK-3β (AA 1-420)) | Ki (human Src kinase; read-out: Ki value on SRC) | Ki (AKT-3) | Structure (SMILES) | Ki (human Src kinase; read-out: Ki value for SRC) |
| --- | --- | --- | --- | --- | --- | --- | --- | --- |
| < 1 µM | 294 to 297 °C | < 1 µM |  |  |  |  | N#CCc1ccc(Nc2nc(Nc3cc(C4CC4)[nH]n3)cc(-c3ccccc3)n2)cc1 [IIIc-4, [2-(4-cyanomethylphenylamino)-6-phenyl-pyrimidin-4-yl]-(5-cyclopropyl-2H-pyrazol-3-yl)-amine] |  |
|  | 249 to 250 °C | < 1 µM | < 0.1 µM | 0.1 to 1 µM |  |  | Cc1cccc(Sc2nc(Nc3cc(C)[nH]n3)c3ccccc3n2)c1 [IIa-14, [2-(3-Methylphenylsulfanyl)-quinazolin-4-yl]-(5-methyl-2H-pyrazol-3-yl)-amine] |  |
|  | 258 to 259 °C | 1 to 20 µM | < 0.1 µM | 1 to 7 µM |  |  | CC(=O)Nc1ccc(Sc2nc(Nc3cc(C)[nH]n3)c3cccc(O)c3n2)cc1 [IIa-52, [2-(4-Acetamido-phenylsulfanyl)-8-hydroxyquinazolin-4-yl]-(5-methyl-2H-pyrazol-3-yl)-amine] |  |
| < 1 µM | > 250 °C | < 1 µM | < 0.1 µM | < 0.1 µM | < 0.1 µM |  | Cc1cc(Nc2nc(Nc3ccc(CC#N)cc3)nc3ccccc23)n[nH]1 [IIc-15, [2-(4-Cyanomethylphenylamino)-quinazolin-4-yl]-(5-methyl-2H-pyrazol-3-yl)-amine] |  |
|  |  |  | < 0.1 µM | < 0.1 µM | < 0.1 µM | 1 to 20 µM | c1ccc2c(Nc3cc(C4CC4)[nH]n3)nc(Nc3ccc4cc[nH]c4c3)nc2c1 [IIc-22, (5-Cyclopropyl-2H-pyrazol-3-yl)-[2-(1H-indol-6-ylamino)-quinazolin-4-yl]-amine] |  |
| 1 to 20 µM | 250 to 251 °C | < 1 µM | < 0.1 µM | < 0.1 µM |  | 1 to 20 µM | CCc1ccc(Nc2nc(Nc3cc(C4CC4)[nH]n3)c3ccccc3n2)cc1 [IIc-25, (5-Cyclopropyl-2H-pyrazol-3-yl)-[2-(4-ethylphenylamino)-quinazolin-4-yl]-amine] |  |
| < 1 µM | 255 to 256 °C | < 1 µM | < 0.1 µM | < 0.1 µM |  | 1 to 20 µM | OCCc1ccc(Nc2nc(Nc3cc(C4CC4)[nH]n3)c3ccccc3n2)cc1 [IIc-27, (5-Cyclopropyl-2H-pyrazol-3-yl)-{2-[4-(2-hydroxyethyl)phenylamino]-quinazolin-4-yl}-amine] |  |
|  |  |  | < 0.1 µM | < 0.1 µM | < 0.1 µM | 1 to 20 µM | N#CCc1ccc(Nc2nc(Nc3cc(C4CC4)[nH]n3)c3ccccc3n2)cc1 [IIc-31, [2-(4-Cyanomethylphenylamino)-quinazolin-4-yl]-(5-cyclopropyl-2H-pyrazol-3-yl)-amine] |  |
|  |  |  | < 0.1 µM | < 0.1 µM | < 0.1 µM | 1 to 20 µM | c1ccc2c(Nc3cc(C4CC4)[nH]n3)nc(Nc3ccc4[nH]ncc4c3)nc2c1 [IIc-37, (5-Cyclopropyl-2H-pyrazol-3-yl)-[2-(1H-indazol-5-ylamino)-quinazolin-4-yl]-amine] |  |
|  | 228 to 231 °C |  | < 0.1 µM | < 0.1 µM | < 0.1 µM | 1 to 20 µM | COC(=O)c1cccc(Nc2nc(Nc3cc(C4CC4)[nH]n3)c3ccccc3n2)c1 [IIc-39, (5-Cyclopropyl-2H-pyrazol-3-yl)-[2-(3-methoxycarbonylphenylamino)-quinazolin-4-yl]-amine] |  |
|  | 241 to 242 °C |  | < 0.1 µM | < 0.1 µM | < 0.1 µM | 1 to 20 µM | Cc1cccc(Nc2nc(Nc3cc(C4CC4)[nH]n3)c3ccccc3n2)c1C [IIc-42, (5-Cyclopropyl-2H-pyrazol-3-yl)-[2-(2,3-dimethylphenylamino)-quinazolin-4-yl]-amine] |  |
| < 1 µM | 236 to 239 °C | < 1 µM | < 0.1 µM | < 0.1 µM |  | 1 to 20 µM | Cc1cc(Nc2nc(Nc3ccc4ncsc4c3)nc3ccccc23)n[nH]1 [IIc-53, [2-(Benzothiazol-6-ylamino)-quinazolin-4-yl]-(5-methyl-2H-pyrazol-3-yl)-amine] |  |

| Structure (SMILES) | Ki (activated ERK2) | melting point | Ki (CDK-2/Cyclin A) | Ki (Aurora-2) | Ki (GSK-3β (AA 1-420)) | Ki (human Src kinase; read-out: Ki value on SRC) | Ki (AKT-3) | Ki (human Src kinase; read-out: Ki value for SRC) |
| --- | --- | --- | --- | --- | --- | --- | --- | --- |
| CC(=O)Nc1ccc(Sc2nc(Nc3cc(C4CC4)[nH]n3)c3ccccc3n2)cc1 [IIa-36, [2-(4-Acetamido-phenylsulfanyl)-quinazolin-4-yl]-(5-cyclopropyl-2H-pyrazol-3-yl)-amine] | 1 to 20 µM |  | < 1 µM |  |  |  |  |  |
| COc1cccc2c(Nc3cc(C)n[nH]3)nc(Sc3ccc(NC(C)=O)cc3)nc12 [IIa-44, [2-(4-Acetamidophenylsulfanyl)-8-methoxy-quinazolin-4-yl]-(5-methyl-2H-pyrazol-3-yl)-amine] |  | 247 to 249 °C | 1 to 20 µM | < 0.1 µM |  |  |  | 1 to 6 µM |
| CCCS(=O)(=O)Nc1ccc(Sc2nc(Nc3cc(C)n[nH]3)c3ccccc3n2)cc1 [IIa-54, (5-Methyl-2H-pyrazol-3-yl)-{2-[4-(propane-1-sulfonylamino)-phenylsulfanyl]-quinazolin-4-yl}-amine] |  | 272 to 273 °C | 1 to 20 µM | < 0.1 µM | 0.1 to 1 µM |  |  | 1 to 6 µM |
| c1ccc(Nc2nc(Nc3cc(C4CC4)[nH]n3)c3ccccc3n2)cc1 [IIc-18, (5-Cyclopropyl-2H-pyrazol-3-yl)-(2-phenylamino-quinazolin-4-yl)-amine] | 1 to 20 µM | 234 °C |  | < 0.1 µM | < 0.1 µM | < 0.1 µM | 1 to 20 µM |  |
